Laboratory results from US9499492B2, “4-(ortho)-fluorophenyl-5-fluoropyrimidin-2-yl amines containing a sulfoximine group” (BAYER PHARMA AKTIENGESELLSCHAFT, priority 2012, dated 2016).
Where two headings read alike, the source gives them in different places.

Assays:
[1] = tested on: HeLa, human cervical tumour cells; experiment: Proliferation assay, HeLa (Method 3); assay type: cell-based; settings: 4 days, crystal violet, read-out: Inhibition of HeLa cell proliferation IC50
Method: (§1) After 24 hours, the cells of one plate (zero-point plate) were stained with crystal violet (see below), while the medium of the other plates was replaced by fresh culture medium (200 μl), to which the test substances were added in various concentrations (0 μM, as well as in the range of 0.001-10 μM; the final concentration of the solvent dimethyl sulfoxide was 0.5%). The cells were incubated for 4 days in the presence of test substances. Cell proliferation was determined by staining the cells with crystal violet: the cells were fixed by adding 20 μl/measuring point of an 11% glutaric aldehyde solution for 15 minutes at room temperature. After three washing cycles of the fixed cells with water, the plates were dried at room temperature. The cells were stained by adding 100 μl/measuring point of a 0.1% crystal violet solution (pH 3.0). After three washing cycles of the stained cells with water, the plates were dried at room temperature. The dye was dissolved by adding 100 μl/measuring point of a 10% acetic acid solution. The extinction was determined by photometry at a wavelength of 595 nm. The change of cell number, in percent, was calculated by normalization of the measured values to the extinction values of the zero-point plate (=0%) and the extinction of the untreated (0 μm) cells (=100%).

CDK2/CycE = CDK2/CycE (Homo sapiens (Human), UniProt P24941); experiment: CDK2/CycE kinase assay (Method 2); assay type: biochemical; settings: 10 μM ATP
Excerpt: 2. CDK2/CycE Kinase Assay:
CDK2/CycE-inhibitory activity of compounds of the present invention was quantified employing the CDK2/CycE TR-FRET assay as described in the following paragraphs:
Recombinant fusion proteins of GST and human CDK2 and of GST and human CycE, expressed in insect cells (Sf9) and purified by Glutathion-Sepharose affinity chromatography, were purchased from ProQinase GmbH (Freiburg, Germany). As substrate for the kinase reaction biotinylated peptide biotin-Ttds-[…] (C-terminus in amid form) was used which can be purchased e.g. form the company JERINI Peptide Technologies (Berlin, Germany).
(§2) For the assay 50 nl of a 100 fold concentrated solution of the test compound in DMSO was pipetted into a black low volume 384 well microtiter plate (Greiner Bio-One, Frickenhausen, Germany), 2 μl of a solution of CDK2/CycE in aqueous assay buffer [50 mM Tris/HCl pH 8.0, 10 mM MgCl2, 1.0 mM dithiothreitol, 0.1 mM sodium ortho-vanadate, 0.01% (v/v) Nonidet-P40 (Sigma)] were added and the mixture was incubated for 15 min at 22° C. to allow pre-binding of the test compounds to the enzyme before the start of the kinase reaction. […] The concentration of CDK2/CycE was adjusted depending of the activity of the enzyme lot and was chosen appropriate to have the assay in the linear range, typical concentrations were in the range of 130 ng/ml.
(§3) The resulting mixture was incubated 1 h at 22° C. to allow the formation of complex between the phosphorylated biotinylated peptide and the detection reagents. Subsequently the amount of phosphorylated substrate was evaluated by measurement of the resonance energy transfer from the Eu-chelate to the streptavidine-XL. Therefore, the fluorescence emissions at 620 nm and 665 nm after excitation at 350 nm was measured in a TR-FRET reader, e.g. a Rubystar (BMG Labtechnologies, Offenburg, Germany) or a Viewlux (Perkin-Elmer). The ratio of the emissions at 665 nm and at 622 nm was taken as the measure for the amount of phosphorylated substrate.

[2] = tested on: A2780, human ovarian carcinoma cells; experiment: Proliferation assay, A2780 (Method 3); assay type: cell-based; settings: A2780, 4 days, crystal violet, read-out: Inhibition of A2780 cell proliferation IC50
Method: as §1

CDK9/CycT1 [3] = molecular target: T1, CDK9/CycT1 (Homo sapiens (Human), UniProt P50750); experiment: CDK9/CycT1 kinase assay (Method 1a); assay type: biochemical; settings: for IC50: 10 μM ATP; for Selectivity CDK9/CDK2: derived from Methods 1a. and 2.
T1 sequence (P50750 whole entry): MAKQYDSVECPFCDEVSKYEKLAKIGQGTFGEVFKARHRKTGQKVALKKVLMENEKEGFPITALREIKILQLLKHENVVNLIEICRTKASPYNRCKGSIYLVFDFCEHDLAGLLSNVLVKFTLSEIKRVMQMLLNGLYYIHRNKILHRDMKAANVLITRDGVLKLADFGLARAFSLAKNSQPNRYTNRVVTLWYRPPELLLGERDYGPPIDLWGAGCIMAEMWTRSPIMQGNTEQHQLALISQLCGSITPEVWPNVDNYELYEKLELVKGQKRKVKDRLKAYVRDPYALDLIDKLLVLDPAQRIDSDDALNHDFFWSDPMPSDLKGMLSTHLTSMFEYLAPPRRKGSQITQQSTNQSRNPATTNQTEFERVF
T1 sequence (O60563 whole entry partner): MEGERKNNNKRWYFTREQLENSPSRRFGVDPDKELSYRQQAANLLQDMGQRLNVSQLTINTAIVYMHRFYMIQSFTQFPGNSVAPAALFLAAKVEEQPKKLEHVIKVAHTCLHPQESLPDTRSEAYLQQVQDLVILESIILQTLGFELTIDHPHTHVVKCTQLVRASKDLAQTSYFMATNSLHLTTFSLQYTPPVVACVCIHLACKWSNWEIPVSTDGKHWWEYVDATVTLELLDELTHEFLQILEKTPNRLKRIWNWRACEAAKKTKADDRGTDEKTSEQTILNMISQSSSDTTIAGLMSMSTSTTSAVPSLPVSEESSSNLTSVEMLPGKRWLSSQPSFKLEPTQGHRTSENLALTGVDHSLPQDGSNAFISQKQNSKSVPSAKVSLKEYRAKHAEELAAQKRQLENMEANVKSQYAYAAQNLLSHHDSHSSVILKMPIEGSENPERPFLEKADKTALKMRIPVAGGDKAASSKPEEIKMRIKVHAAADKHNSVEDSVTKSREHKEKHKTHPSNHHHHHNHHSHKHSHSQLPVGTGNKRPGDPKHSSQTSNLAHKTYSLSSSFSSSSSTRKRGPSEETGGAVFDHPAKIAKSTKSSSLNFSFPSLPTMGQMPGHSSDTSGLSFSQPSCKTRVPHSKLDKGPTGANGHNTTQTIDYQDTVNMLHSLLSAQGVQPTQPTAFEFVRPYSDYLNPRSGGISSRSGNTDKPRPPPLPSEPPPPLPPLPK
Excerpt: 1a. CDK9/CycT1 Kinase Assay:
CDK9/CycT1-inhibitory activity of compounds of the present invention was quantified employing the CDK9/CycT1 TR-FRET assay as described in the following paragraphs:
(§4) Recombinant full-length His-tagged human CDK9 and CycT1, expressed in insect cells and purified by Ni-NTA affinity chromatography, were purchased from Invitrogen (Cat. No PV4131). As substrate for the kinase reaction biotinylated peptide biotin-Ttds-[…] (C-terminus in amid form) was used which can be purchased e.g. form the company JERINI Peptide Technologies (Berlin, Germany).
as §2, with “CDK9/CycT1” for “CDK2/CycE”, “1 μg/ml.” for “130 ng/ml.”
as §3, with “HTRF” for “TR-FRET”

CDK9/CycT1 [4] = molecular target: T1, CDK9/CycT1; experiment: CDK9/CycT1 high ATP kinase assay (Method 1b); assay type: biochemical; settings: 2 mM ATP
Method: 1b. CDK9/CycT1 High ATP Kinase Assay
CDK9/CycT1-inhibitory activity of compounds of the present invention at a high ATP concentration after preincubation of enzyme and test compounds was quantified employing the CDK9/CycT1 TR-FRET assay as described in the following paragraphs.
as §4, with “were purchase” for “were purchased”, “JERINI peptide technologies” for “JERINI Peptide Technologies”
as §2, with “CDK9/CycT1” for “CDK2/CycE”, “0.5 μg/ml.” for “130 ng/ml.”
as §3, with “HTRF” for “TR-FRET”

Row | Structure (SMILES) | IC50 ([1]; Homo sapiens, 96 h) [µM] | IC50 (CDK2/CycE) [µM] | IC50 ([2]; Homo sapiens, A2780, 96 h) [µM] | other results
1 | CCOC(=O)N=S(C)(=O)Cc1cccc(Nc2ncc(F)c(-c3ccc(F)cc3F)n2)c1 (racemic) [Example 8, (rac)-Ethyl[(3-{[4-(2,4-difluorophenyl)-5-fluoropyrimidin-2-yl]amino}benzyl)(methyl)oxido-λ^6-sulfanylidene]carbamate] | 4.47 | 0.56 |  | 
2 | CS(=O)(Cc1cc(F)cc(Nc2ncc(F)c(-c3ccc(F)cc3F)n2)c1)=NC#N (racemic) [Example 10, (rac)-[(3-{[4-(2,4-Difluorophenyl)-5-fluoropyrimidin-2-yl]amino}-5-fluorobenzyl)(methyl)oxido-λ^6-sulfanylidene]cyanamide] | 1.05 | 0.57 | 0.43 | 
3 | CS(=N)(=O)Cc1cc(F)cc(Nc2ncc(F)c(-c3ccc(F)cc3F)n2)c1 (racemic) [Example 11, (rac)-4-(2,4-Difluorophenyl)-5-fluoro-N-{3-fluoro-5-[(S-methylsulfonimidoyl)methyl]phenyl}pyrimidin-2-amine] | 1.32 |  | 0.9 | 
4 | Cc1cc(CS(C)(=O)=NC#N)cc(Nc2ncc(F)c(-c3ccc(F)cc3F)n2)c1 (racemic) [Example 16, (rac)-[(3-{[4-(2,4-Difluorophenyl)-5-fluoropyrimidin-2-yl]amino}-5-methylbenzyl)(methyl)oxido-λ^6-sulfanylidene]cyanamide] | 0.85 | 0.47 | 0.3 | 
5 | CS(=N)(=O)Cc1cc(Br)cc(Nc2ncc(F)c(-c3ccc(F)cc3F)n2)c1 (racemic) [Example 19, (rac)-N-{3-Bromo-5-[(S-methylsulfonimidoyl)methyl]phenyl}-4-(2,4-difluorophenyl)-5-fluoropyrimidin-2-amine] | 1.6 | 0.38 |  | IC50 (CDK9/CycT1 [3]): 0.013 µM; Selectivity CDK9/CDK2 (CDK9/CycT1 [3]): 30
6 | COc1cc(CS(C)(=N)=O)cc(Nc2ncc(F)c(-c3ccc(F)cc3F)n2)c1 (racemic) [Example 21, (rac)-4-(2,4-Difluorophenyl)-5-fluoro-N-{3-methoxy-5-[(S-methylsulfonimidoyl)methyl]phenyl}pyrimidin-2-amine] | 0.78 |  |  | 
7 | CS(=N)(=O)Cc1cc(F)cc(Nc2ncc(F)c(-c3ccc(F)cc3F)n2)c1 (single isomer, unassigned) [Example 12, 4-(2,4-Difluorophenyl)-5-fluoro-N-{3-fluoro-5-[(S-methylsulfonimidoyl)methyl]phenyl}pyrimidin-2-amine] | 1.94 | 1.7 | > 1 | 
8 | CS(=N)(=O)Cc1cc(F)cc(Nc2ncc(F)c(-c3ccc(F)cc3F)n2)c1 (single isomer, unassigned) [Example 13, 4-(2,4-Difluorophenyl)-5-fluoro-N-{3-fluoro-5-[(S-methylsulfonimidoyl)methyl]phenyl}pyrimidin-2-amine] |  | 0.73 |  | IC50 [2]: > 1 µM; IC50 [1]: 1.76 µM
9 | N=S(=O)(CCN)Cc1cc(Nc2ncc(F)c(-c3ccc(F)cc3F)n2)cc(C(F)(F)F)c1 (single isomer, unassigned) [Example 26, N-[3-{[S-(2-Aminoethyl)sulfonimidoyl]methyl}-5-(trifluoromethyl)phenyl]-4-(2,4-difluorophenyl)-5-fluoropyrimidin-2-amine] |  | 1.3 |  | IC50 (CDK9/CycT1 [4]): 0.278 µM
10 | Cc1cc(CS(C)(=O)=NC#N)cc(Nc2ncc(F)c(-c3ccc(F)cc3F)n2)c1 (single isomer, unassigned) [Example 35, [(3-{[4-(2,4-Difluorophenyl)-5-fluoro-pyrimidin-2-yl]amino}-5-methylbenzyl)-(methyl)oxido-λ^6-sulfanylidene]cyanamide] |  | 0.39 | 0.327 | IC50 [1]: 0.458 µM
11 | Cc1cc(CS(C)(=O)=NC#N)cc(Nc2ncc(F)c(-c3ccc(F)cc3F)n2)c1 (single isomer, unassigned) [Example 36, [(3-{[4-(2,4-Difluorophenyl)-5-fluoro-pyrimidin-2-yl]amino}-5-methylbenzyl)-(methyl)oxido-λ^6-sulfanylidene]cyanamide] |  | 0.4 |  | IC50 [2]: 0.338 µM; IC50 [1]: 1.02 µM
12 | CS(=O)(Cc1cc(Br)cc(Nc2ncc(F)c(-c3ccc(F)cc3F)n2)c1)=NC#N (single isomer, unassigned) [Example 39, [(3-Bromo-5-{[4-(2,4-difluorophenyl)-5-fluoropyrimidin-2-yl]amino}benzyl)(methyl)oxido-λ^6-sulfanylidene]cyanamide] | 1.06 | 0.43 | 0.619 | 
13 | CS(=O)(Cc1cc(Br)cc(Nc2ncc(F)c(-c3ccc(F)cc3F)n2)c1)=NC#N (single isomer, unassigned) [Example 40, [(3-Bromo-5-{[4-(2,4-difluorophenyl)-5-fluoropyrimidin-2-yl]amino}benzyl)(methyl)oxido-λ^6-sulfanylidene]cyanamide] |  | 0.102 |  | IC50 [2]: 0.371 µM; IC50 [1]: 0.697 µM
14 | CS(=N)(=O)Cc1cc(Br)cc(Nc2ncc(F)c(-c3ccc(F)cc3F)n2)c1 (single isomer, unassigned) [Example 41, N-{3-Bromo-5-[(S-methylsulfonimidoyl)methyl]phenyl}-4-(2,4-difluorophenyl)-5-fluoropyrimidin-2-amine] |  | 0.509 |  | IC50 (CDK9/CycT1 [3]): 0.018 µM; Selectivity CDK9/CDK2 (CDK9/CycT1 [3]): 28
